Data: PubChem BioAssay AID248 (DTP/NCI, 2004)
Values joined by “and” are separate entries in the source; they are usually repeats but may differ in a detail not shown here. Identical values can stand only once. Toxic doses and inconclusive results are not listed. Rule as the data show it: active = T/C of 150% or more; inactive = T/C below 125%.

Tested on: L1210 leukemia ip in BDF1 mice, survival T/C
Assay: NCI In Vivo Anticancer Drug Screen. Data for tumor model L1210 Leukemia (intraperitoneal) in B6D2F1 (BDF1) mice
Conditions: endpoint: mean survival time, higher = longer survival
How it was run: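 Transplanted-tumor mice were given test agent; controls received vehicle only. Survival readings from the two groups were divided (treated over control).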

[1] = dose: 100.0 mg/kg/injection, schedule: Q01DX009 (ip), vehicle: Klucel (hydroxypropylcellulose) (HPC)
[2] = dose: 100.0 mg/kg/injection, schedule: Q04DX002 (ip), vehicle: Klucel (hydroxypropylcellulose) (HPC)
[3] = dose: 200.0 mg/kg/injection, schedule: Q01DX009 (ip), vehicle: Klucel (hydroxypropylcellulose) (HPC)
[4] = dose: 400.0 mg/kg/injection, schedule: Q01DX009 (ip), vehicle: Klucel (hydroxypropylcellulose) (HPC)
[5] = dose: 100.0 mg/kg/injection, schedule: Q01DX001 (ip), vehicle: Klucel (hydroxypropylcellulose) (HPC)
[6] = dose: 200.0 mg/kg/injection, schedule: Q01DX001 (ip), vehicle: Klucel (hydroxypropylcellulose) (HPC)
[7] = dose: 100.0 mg/kg/injection, schedule: Q01DX009 (ip), vehicle: saline with Tween-80
[8] = dose: 100.0 mg/kg/injection, schedule: Q04DX003 (ip), vehicle: saline with Tween-80
[9] = dose: 200.0 mg/kg/injection, schedule: Q04DX003 (ip), vehicle: saline with Tween-80
[10] = dose: 400.0 mg/kg/injection, schedule: Q04DX003 (ip), vehicle: saline with Tween-80
[11] = dose: 100.0 mg/kg/injection, schedule: Q01DX001 (ip), vehicle: carboxymethylcellulose (CMC)
[12] = dose: 400.0 mg/kg/injection, schedule: Q01DX001 (ip), vehicle: Klucel (hydroxypropylcellulose) (HPC)
[13] = dose: 100.0 mg/kg/injection, schedule: Q04DX003 (ip), vehicle: Klucel (hydroxypropylcellulose) (HPC)
[14] = dose: 200.0 mg/kg/injection, schedule: Q04DX003 (ip), vehicle: Klucel (hydroxypropylcellulose) (HPC)
[15] = dose: 400.0 mg/kg/injection, schedule: Q04DX003 (ip), vehicle: Klucel (hydroxypropylcellulose) (HPC)
[16] = dose: 200.0 mg/kg/injection, schedule: Q04DX002 (ip), vehicle: Klucel (hydroxypropylcellulose) (HPC)
[17] = dose: 400.0 mg/kg/injection, schedule: Q04DX002 (ip), vehicle: Klucel (hydroxypropylcellulose) (HPC)
[18] = dose: 200.0 mg/kg/injection, schedule: Q01DX009 (ip), vehicle: saline with Tween-80
[19] = dose: 400.0 mg/kg/injection, schedule: Q01DX009 (ip), vehicle: saline with Tween-80
[20] = dose: 6.25 mg/kg/injection, schedule: Q01DX009 (ip), vehicle: Klucel (hydroxypropylcellulose) (HPC)
[21] = dose: 12.5 mg/kg/injection, schedule: Q01DX009 (ip), vehicle: Klucel (hydroxypropylcellulose) (HPC)
[22] = dose: 25.0 mg/kg/injection, schedule: Q04DX003 (ip), vehicle: Klucel (hydroxypropylcellulose) (HPC)

Measured: T/C

N#C/C(=C\c1cccc2ccccc12)c1ccccc1
inactive: dose: 25.0 mg/kg/injection, schedule: Q04DX002 (ip), vehicle: Klucel (hydroxypropylcellulose) (HPC) 92 % of control | dose: 50.0 mg/kg/injection, schedule: Q04DX002 (ip), vehicle: Klucel (hydroxypropylcellulose) (HPC) 98 % of control | [1] 95 % of control | [2] 95 % of control | [3] 93 % of control | [4] 100 % of control

Cc1nccnc1S(=O)(=O)c1ccc2ccccc2c1
inactive: [5] 101 % of control | [6] 97 % of control

CCC(=S)Nc1ccc(Cl)cc1
inactive: dose: 25.0 mg/kg/injection, schedule: Q01DX009 (ip), vehicle: saline with Tween-80 103 % of control | dose: 50.0 mg/kg/injection, schedule: Q01DX009 (ip), vehicle: saline with Tween-80 105 % of control | [7] 112 % of control | [8] 91 % of control | [9] 110 % of control

Cc1cc(CCCC(=O)O)c(C)s1
inactive: [8] 101 % of control | [9] 104 % of control | [10] 101 % of control

CN1C(=O)C/C(=C/[N+](=O)[O-])c2ccccc21
inactive: dose: 50.0 mg/kg/injection, schedule: Q01DX001 (ip), vehicle: carboxymethylcellulose (CMC) 101 % of control | [11] 97 % of control

CCOC(=O)c1c[nH]c2c(c1=O)c(=O)n(C)c(=O)n2C
inactive: [5] 97 % of control | [6] 101 % of control | [12] 94 % of control

O=C(O)C1CCCCC1C(=O)Nc1cccc2ccccc12 (stereo not given)
inactive: [1] 105 % of control | [3] 96 % of control | [4] 93 % of control

Fc1c(F)c(F)c(Oc2c(F)c(F)[c]([Sn]([c]3c(F)c(F)c(Oc4c(F)c(F)c(F)c(F)c4F)c(F)c3F)([c]3c(F)c(F)c(Oc4c(F)c(F)c(F)c(F)c4F)c(F)c3F)[c]3c(F)c(F)c(Oc4c(F)c(F)c(F)c(F)c4F)c(F)c3F)c(F)c2F)c(F)c1F
inactive: [1] 104 % of control | [13] 103 % of control | [3] 105 % of control | [14] 102 % of control | [4] 104 % of control | [15] 102 % of control

Cc1cc2c(c(O)c1CN1CCOCC1)C1=C(CCCC1)C(C)(C)O2
inactive: [11] 107 % of control | dose: 200.0 mg/kg/injection, schedule: Q01DX001 (ip), vehicle: carboxymethylcellulose (CMC) 91 % of control | dose: 400.0 mg/kg/injection, schedule: Q01DX001 (ip), vehicle: carboxymethylcellulose (CMC) 86 % of control

CNCCc1ccc(OC)c(OC)c1
inactive: dose: 25.0 mg/kg/injection, schedule: Q04DX002 (ip), vehicle: saline 104 % of control | dose: 50.0 mg/kg/injection, schedule: Q04DX002 (ip), vehicle: saline 107 % of control | dose: 100.0 mg/kg/injection, schedule: Q04DX002 (ip), vehicle: saline 96 % of control

Clc1ccc2nc(/C=C/c3ccccc3)ccc2c1
inactive: dose: 100.0 mg/kg/injection, schedule: Q01DX001 (ip), vehicle: other 95 % of control | dose: 200.0 mg/kg/injection, schedule: Q01DX001 (ip), vehicle: other 104 % of control | dose: 400.0 mg/kg/injection, schedule: Q01DX001 (ip), vehicle: other 98 % of control

COC1OC(COC(c2ccccc2)(c2ccccc2)c2ccccc2)C(O)C(O)C1NC(C)=O (stereo not given)
inactive: [5] 96 % of control | [6] 96 % of control | [12] 101 % of control

CCC(=O)CC(=O)C(=O)OC
inactive: dose: 75.0 mg/kg/injection, schedule: Q01DX001 (ip), vehicle: saline 102 % of control | dose: 75.0 mg/kg/injection, schedule: Q04DX003 (ip), vehicle: saline 105 % of control | dose: 150.0 mg/kg/injection, schedule: Q01DX001 (ip), vehicle: saline 100 % of control | dose: 150.0 mg/kg/injection, schedule: Q04DX003 (ip), vehicle: saline 103 % of control | dose: 300.0 mg/kg/injection, schedule: Q01DX001 (ip), vehicle: saline 104 % of control | dose: 300.0 mg/kg/injection, schedule: Q04DX003 (ip), vehicle: saline 90 % of control

O=C1CC(C(c2ccccc2)c2ccccc2)CO1 (stereo not given)
inactive: [5] 104 % of control | [1] 110 % of control and 89 % of control | [2] 94 % of control and 99 % of control | [13] 94 % of control | [6] 100 % of control | [3] 113 % of control and 89 % of control | [16] 94 % of control and 96 % of control | [14] 94 % of control | [12] 98 % of control | [4] 116 % of control and 89 % of control | [17] 99 % of control and 101 % of control | [15] 95 % of control

C=C(Br)CNC(=O)NCCN1CCOCC1
inactive: [8] 97 % of control | [9] 111 % of control | [10] 97 % of control

COc1ccc(C(=O)NC(SC)C(N)=O)cc1 (stereo not given)
inactive: [2] 90 % of control | [16] 101 % of control | [17] 93 % of control

CCC(=O)c1ccccc1NC(C)=O
inactive: [7] 97 % of control | [18] 96 % of control | [19] 101 % of control

Cc1ccc(NC(=O)OCCSC(=O)COc2ccc(Cl)cc2Cl)cc1
inactive: [7] 93 % of control | [18] 98 % of control | [19] 104 % of control

OC(CCN1CCCCC1)(c1ccccc1)C1CC2C=CC1C2 (stereo not given)
inactive: [20] 106 % of control | [21] 105 % of control | dose: 25.0 mg/kg/injection, schedule: Q01DX009 (ip), vehicle: Klucel (hydroxypropylcellulose) (HPC) 100 % of control | [22] 106 % of control | dose: 50.0 mg/kg/injection, schedule: Q01DX009 (ip), vehicle: Klucel (hydroxypropylcellulose) (HPC) 105 % of control | dose: 50.0 mg/kg/injection, schedule: Q04DX003 (ip), vehicle: Klucel (hydroxypropylcellulose) (HPC) 97 % of control | [1] 103 % of control | [13] 95 % of control

CC(=O)/C=C/c1ccccc1
inactive: dose: 100.0 mg/kg/injection, schedule: Q01DX001 (ip), vehicle: gum acacia 91 % of control | dose: 200.0 mg/kg/injection, schedule: Q01DX001 (ip), vehicle: gum acacia 105 % of control | dose: 400.0 mg/kg/injection, schedule: Q01DX001 (ip), vehicle: gum acacia 97 % of control

CC(=O)C1=CC(=O)NC(=O)C1C(=O)CC(C)C (stereo not given)
inactive: dose: 0.78 mg/kg/injection, schedule: Q01DX009 (ip), vehicle: Klucel (hydroxypropylcellulose) (HPC) 97 % of control | dose: 1.56 mg/kg/injection, schedule: Q01DX009 (ip), vehicle: Klucel (hydroxypropylcellulose) (HPC) 97 % of control | dose: 3.12 mg/kg/injection, schedule: Q01DX009 (ip), vehicle: Klucel (hydroxypropylcellulose) (HPC) 93 % of control | [20] 98 % of control | [21] 98 % of control | dose: 12.5 mg/kg/injection, schedule: Q04DX003 (ip), vehicle: Klucel (hydroxypropylcellulose) (HPC) 98 % of control | [22] 96 % of control
